Experimental data from article PMC7098963, “Pharmacophore-Based Virtual Screening Toward the Discovery of Novel Anti-echinococcal Compounds” (Frontiers in Cellular and Infection Microbiology, 2020).
Like-named read-outs stand apart in the source and are kept apart here.

Experiments:
E. multilocularis = test: Compound efficacy in E. multilocularis-infected mice; details: for deaths of mice during the 28-days treatment: n = 10; for treatment efficacy versus control group, in words: 25 and 50 mg/kg/day oral; for treatment efficacy versus control group, in words / Mean cyst weight reduction (inhibition rate): 28 days; for Mean cyst weight reduction (inhibition rate): infected BALB/c mice
Procedure: E. multilocularis-infected animals [BALB/c mice (SLAC Laboratory Animal Center)] were maintained by serial i.p. transplantation passages through for 6 months, the details can be found in our published paper (Liu et al., [2019]). Eighty infected BALB/c mice were prepared for in vivo treatment experiments. Parasite materials were isolated from the peritoneal cavity of the infected animals and homogenized with Hanks' balanced salt solution (HBSS). Then, after passing the parasite homogenate through a 60-mesh sieve, the E. multilocularis PSCs were collected and rinsed 5~8 times. The viability of the PSCs was determined by the methylene blue exclusion method (Liu et al., [2018]), and PSCs with > 95% viability were used in the following experiments. The PSCs were cultured in RPMI 1,640 medium supplemented with 10% CS and antibiotics (100 U/ml penicillin G and 100 μg/ml streptomycin) at 37°C in 5% CO2.
The remaining mice were orally administered 1% tragacanth solution (1% TRA) as a control. All of the mice were euthanized 2 weeks after finishing the treatment, and all of the cysts were isolated and weighed. The efficacy of the treatments was assessed based on the mean cyst weight as previously described (Liu et al., [2015]).
The LC50 and Tox50 values were calculated by the probability unit method with SPSS version 17.0. The differences in mean cyst weight were analyzed by ANOVA in SPSS 17.0, and P < 0.05 was considered statistically significant.

[1] = Pharmacokinetics analysis in plasma of mice; type: in vivo, BALB/c mice; details: for MRT last: read-out: MRT(0–t)
Procedure: To study the relationship between pharmacokinetic characteristics and treatment efficacy in vivo, compounds were administered by oral (50 mg/kg) and intramuscular (12.5 mg/kg) methods to healthy BALB/c mice ([…]). Subgroups of 3 mice each were bled at 0.25, 0.5, 1, 2, 4, 8, 16, 24, 32, and 48 h post-administration. Then, 300 μl samples of plasma were collected and centrifuged at 2,500 g for 15 min. The compounds in the plasma were extracted on Oasis HLB cartridges (Waters, Massachusetts, USA) with praziquantel as the internal standard. The HPLC-HRMS system used for separation and analysis consisted of an Accela 1250 pump, a PAL HTC autosampler, an Accela PDA detector and an Xcalibur data system (Thermo Fisher Scientific, Waltham, MA, USA). Compounds were separated on a 3-μm Waters Atlantis 2.1 mm × 100 mm column (Massachusetts, USA) with a mobile phase containing methanol and formic acid at a flow rate of 0.35 ml/min. The data were analyzed by the non-compartmental model present in DAS 2.0 (Drug Analysis System, Shanghai University of T.C.M, China). Detailed pharmacokinetic experimental methods, including a representative HPLC-MS chromatogram, a standard curve, and a plot used to confirm precision, are shown in the Supplementary Data.

[2] = tested on: E. multilocularis protoscoleces; test: In vitro drug screen with E. multilocularis protoscoleces (methylene blue exclusion); type: cell-based; details: Echinococcus multilocularis, read-out: LC50 E. multilocularis PSC
Procedure: In vitro treatment of PSCs was performed in 96-well microtiter plates (Costar, USA) containing 100 PSCs per 200 μl. A solution of the test compound (6.25~100 μM) was added to each well. Nitazoxanide and mebendazole (25 μM) were used as positive controls, while RPMI 1640 medium and RPMI 1640 with 0.25% DMSO were used as negative controls. […] All experiments were carried out in triplicate and repeated at least twice.

Chang liver cells = test: Cytotoxicity test, Chang liver cells (CCK-8); type: cell-based; details: for Tox50 Changliver cell: 72 h, CCK-8, 6.25~100 μM; for inhibition at 100 µM: Chang liver, read-out: inhibition rate, Chang liver cell
Procedure: (§1) Cytotoxicity was determined using Chang liver cells and A172 cells in DMEM with 10% FBS as previously described (Liu et al., [2018]). The final concentrations of the test compounds were 3.125~50 μM for A172 cells and 6.25~100 μM for Chang liver cells. After 72 h, the cell viabilities were determined using a CCK-8 kit. The concentration that induced 50% cell toxicity (Tox50) was then calculated.

A172 cells = test: Cytotoxicity test, A172 cells (CCK-8); type: cell-based; details: for Tox50 A172 cell: 72 h, CCK-8, 3.125~50 μM; for effect on proliferation of cancer cells (A172 cells), in words: CCK-8
Procedure: as §1

[3] = Pharmacokinetics analysis in plasma of mice; type: in vivo, BALB/c mice; details: drug and plasma samples left overnight
[4] = BALB/c, im, mouse plasma, intramuscular 12.5 mg/kg
[5] = BALB/c, mouse, plasma, im, 12.5 mg/kg, intramuscular 12.5 mg/kg, read-out: Cmax
[6] = BALB/c, mouse, plasma, po, 50 mg/kg, oral 50 mg/kg, read-out: Cmax
[7] = BALB/c, mouse plasma, oral 50 mg/kg
[8] = mouse plasma, intramuscular 12.5 mg/kg
[9] = 72 h incubation, 6.25~100 μM, methylene blue exclusion

## OC(COc1ccc(F)cc1)CN1CCN(C(c2ccccc2)c2ccccc2)CC1 (stereo not drawn) [BTB4]
E. multilocularis; 25 mg/kg/day oral
  deaths of mice during the 28-days treatment: 2 mice
E. multilocularis; 50 mg/kg/day oral
  deaths of mice during the 28-days treatment: 4 mice
E. multilocularis
  treatment efficacy versus control group, in words: ineffective
[1]; [4]
  Tmax: 4.67 ± 3.06 h
  MRT last: 16 ± 1.13 h
[1]; [5]
  Cmax: 86.4 ± 4.02 ng/mL
[1]; [6]
  Cmax: 225 ± 55.4 ng/mL
[1]; [7]
  Tmax: 2 h
  MRT last: 8.08 ± 1.55 h
[1]; [8]
  AUC(0–t): 1589.90 ± 165.13 ng·h/mL
[1]; mouse plasma, oral 50 mg/kg
  AUC(0–t): 1692.29 ± 341.00 ng·h/mL

## COc1cccc(NC(=O)CN(C)CC(=O)Nc2ccc(F)c(Cl)c2)c1 [Compound S1]
[2]; [9]
  LC50: 20.4 ± 0.51 µM
Chang liver cells
  Tox50 Changliver cell: 43.98 ± 1.38 µM

## O=C(CC1CCC(c2c[nH]c3ccccc23)CC1)Nc1cccc(Cl)c1 (stereo not drawn) [Compound S5]
[2]; [9]
  LC50: 18.6 ± 1 µM
A172 cells
  Tox50 A172 cell: 11.98 ± 0.91 µM
  effect on proliferation of cancer cells (A172 cells), in words: inhibited the proliferation
Chang liver cells
  Tox50 Changliver cell: 42.44 ± 0.34 µM

## O=C(CC1CCC(c2c[nH]c3ccccc23)CC1)Nc1cc(Cl)ccc1Cl (stereo not drawn) [Compound S6]
[2]; 72 h
  LC50: 17 ± 0.93 µM
A172 cells
  Tox50 A172 cell: 11.00 ± 5.00 µM
  effect on proliferation of cancer cells (A172 cells), in words: inhibited the proliferation
Chang liver cells
  inhibition at 100 µM: 24.6%
E. multilocularis; 25 mg/kg/day oral gavage
  Mean cyst weight reduction (inhibition rate): 9.53%
E. multilocularis; 50 mg/kg/day oral gavage
  Mean cyst weight reduction (inhibition rate): 14.43%
E. multilocularis
  treatment efficacy versus control group, in words: no significant difference
[1]; [6]
  Cmax: 1 ng/mL
[1]; [7]
  Tmax: 4.33 ± 3.51 h
  MRT last: 4.34 ± 2.59 h
[1]; [8]
  plasma concentration, in words: below the detection limit
[1]; mouse plasma, oral 50 mg/kg
  AUC(0–t): 5.10 ± 4.64 ng·h/mL
[1]; mouse plasma, oral 50 mg/kg, 50 mg/kg
  Cmax: 1.55 ± 1.01 ng/mL
[3]
  stability in plasma samples: detectable concentration: greatly reduced

## Cc1ccc(C)c(NC(=O)CC2CCC(c3c[nH]c4ccccc34)CC2)c1 (stereo not drawn) [Compound S11]
[2]; [9]
  LC50: 18.7 ± 0.87 µM
A172 cells
  Tox50 A172 cell: 22.72 ± 1.37 µM
  effect on proliferation of cancer cells (A172 cells), in words: inhibited the proliferation
Chang liver cells
  inhibition at 100 µM: 42.1%

## CN(CC(=O)Nc1cccc(F)c1)CC(=O)Nc1cccc2ccccc12 [Compound S16]
[2]; [9]
  LC50: 17.4 ± 0.2 µM
A172 cells
  Tox50 A172 cell: 21.00 ± 6.24 µM
  effect on proliferation of cancer cells (A172 cells), in words: inhibited the proliferation
Chang liver cells
  inhibition at 100 µM: 34.6%

## C[C@H](C(=O)N(C)Cc1ccccc1)N(C)CC(=O)Nc1cccc2ccccc12 [Compound S19]
[2]; [9]
  LC50: 18.8 ± 1.7 µM
A172 cells
  Tox50 A172 cell: 22.54 ± 1.79 µM
  effect on proliferation of cancer cells (A172 cells), in words: inhibited the proliferation
Chang liver cells
  inhibition at 100 µM: 36.5%

## CCN(CC(=O)Nc1cc(Cl)cc(Cl)c1)Cc1nc(=O)c2ccc(Cl)cc2[nH]1 [Compound S28]
[2]; [9]
  LC50: 19.9 ± 0.31 µM
A172 cells
  Tox50 A172 cell: 20.99 ± 4.12 µM
  effect on proliferation of cancer cells (A172 cells), in words: inhibited the proliferation
Chang liver cells
  Tox50 Changliver cell: 35.41 ± 0.62 µM

## Cc1ccnc(NC(=O)C2CCN(CCC(=O)Nc3ccc4c(c3)CCC4)CC2)c1 [Compound S31]
[2]; 72 h
  LC50: 19.2 ± 0.8 µM

## CN(C)[C@@H](CNC(=O)C[C@H]1Sc2ccc(Cl)cc2NC1=O)Cc1ccccc1 [Compound S39]
[2]; [9]
  LC50: 17.7 ± 0.74 µM
Chang liver cells
  Tox50 Changliver cell: 51.46 ± 3.34 µM

## COc1ccc([C@H]2CCCN2CC(=O)NCc2cccc(Cl)c2)c(OC)c1 [Compound S59]
[2]; [9]
  LC50: 19.6 ± 0.56 µM
Chang liver cells
  Tox50 Changliver cell: 66.53 ± 2.99 µM

## OC(CN1CCCCC1)Cn1c2ccc(Cl)cc2c2cc(Cl)ccc21 (stereo not drawn) [HT3]
E. multilocularis; 25 mg/kg/day oral
  deaths of mice during the 28-days treatment: 2 mice
E. multilocularis; 50 mg/kg/day oral
  deaths of mice during the 28-days treatment: 3 mice
E. multilocularis
  treatment efficacy versus control group, in words: ineffective
[1]; [4]
  Tmax: 1 h
  MRT last: 18.1 ± 2.38 h
[1]; [5]
  Cmax: 39.6 ± 11.2 ng/mL
[1]; [6]
  Cmax: 122 ± 42.6 ng/mL
[1]; [7]
  Tmax: 0.33 ± 0.14 h
  MRT last: 4.16 ± 0.85 h

## COC(=O)Nc1nc2ccc(C(=O)c3ccccc3)cc2[nH]1 [MBZ, mebendazole, reference compound]
E. multilocularis; 25 mg/kg/day oral gavage
  Mean cyst weight reduction (inhibition rate): 39.66%
E. multilocularis; 25 mg/kg/day oral
  deaths of mice during the 28-days treatment: 1 mice
